How the values were obtained:
[1] = system: collagenase; test: Collagenase inhibitory activity (EnzChek Gelatinase/Collagenase Assay Kit, DQ collagen); assay type: biochemical
Description: Collagenase inhibitory activity was performed by purchasing EnzChek® Gelatinase/Collagenase Assay Kit (250-2000 Assays) reagent from Invitrogen. First, DQ collagen stock solution (1 mg/ml) was prepared by adding 1.0 ml of DDW to 1 mg DQ collagen vial. The 18 ml of DDW was added to 2 ml of 10× reaction buffer, so as to dilute reaction buffer. Then, a collagenase enzyme reagent was prepared, and diluted with reaction buffer to a final concentration of 0.2 U/ml as working solution. Three samples of 50 ? each were prepared in a 96-well plate. The 30 ? of reaction buffer was added to 20 ? of DQ collagen and sample blank, and 30 ? of working solution was added to a sample, which were then left in a light-blocked state at room temperature for about one to two hours, and then fluorescence intensity was measured at excitation wavelength 485 nm and emission wavelength 535 nm using ELISA plate reader (VICTOR X3™, PerkinElmer, US).
As a positive control, copper peptide (Comparative Example 12), which is a representative peptide widely used as a raw material for functional cosmetics, was prepared at the same concentration and used. Copper peptide has excellent skin regeneration ability and thus is used as a raw material to suppress skin aging by promoting wound healing, strengthening skin elasticity, and increasing subcutaneous fat layers.

[2] = target: T1, MMP1 protein (pdb1cgl) (Homo sapiens, UniProt P03956); test: Molecular docking (SYBYL-X 2.1.1, Surflex-Dock 2.7) of binding affinity to collagenase; conditions: from Surflex-Dock total score
T1 sequence (P03956 101-269 limits assumed): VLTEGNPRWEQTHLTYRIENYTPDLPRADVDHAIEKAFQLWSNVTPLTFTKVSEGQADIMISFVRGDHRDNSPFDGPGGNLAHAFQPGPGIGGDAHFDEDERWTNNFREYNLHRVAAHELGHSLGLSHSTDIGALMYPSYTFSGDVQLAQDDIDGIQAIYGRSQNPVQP
Description: Molecular modeling was conducted through a computer simulation program.
Target structure: MMP1 protein (pdb1cgl)
Software: SYBYL-X 2.1.1, Surflex-Dock2.7
Through a computer simulation program, a study was conducted on how to promote collagenase enzyme inhibitory activity and percutaneous absorption during peptide modification.
Total score is a value indicating the degree of binding affinity of a docked structure including a crash and a polar interaction in the unit of pKd, and the larger the value, the higher the binding affinity. And, the similarity is a value comparing the similarity with the structure already bonded to the 1cgl, and means that the closer to 1, the more similar. The result of such docking means that the addition of an appropriate modification residue through a docking simulation of computer chemistry may increase the binding affinity and similarity.
However, when compared with the overall consensus score, a binding affinity similar to or higher than that of pdb1cgl_ligand may be expected, particularly in the modified GPN and PGN, too.

How did the Collagenase inhibitory activity ([1]; 0.05 mg/ml) turn out when `NC(=O)C[C@H](NC(=O)CNC(=O)[C@@H]1CCCN1)C(=O)O` [PGN, Pro-Gly-Asn, reference compound] was run?
Its Collagenase inhibitory activity is 1.6 ± 3.3%.

And the Collagenase inhibitory activity ([1]; 0.1 mg/ml)?
The Collagenase inhibitory activity was 4.7 ± 3.9%.

What about the Collagenase inhibitory activity ([1]; 0.5 mg/ml) of the same molecule?
The Collagenase inhibitory activity was 11.2 ± 6.2%.

And the Collagenase inhibitory activity ([1]; 1 mg/ml)?
The Collagenase inhibitory activity was 13.1%.

What about the “collagenase inhibitory activity IC50” value ([1]; FIGS. 5 and 6) of the same molecule?
The value was 1.577 mg/mL.

And the “binding affinity compared to 1cgl ligand” value [2]?
Its value is about 61.5%.

Source: US20230312643A1, “PEPTIDE DERIVATIVE WITH COLLAGENASE INHIBITORY ACTIVITY, AND USE THEREOF” (SUNMARINE BIOTECH, priority 2020, published 2023)
